{"source": "PubChem BioAssay (NCI)", "assay_in_all_cases": "NCI tumour cell line growth inhibition, 48 h", "key": {"T-47D breast": {"test_system": "T-47D breast"}, "LXFL 529 NSCLC": {"test_system": "LXFL 529 NSCLC"}, "XF 498 CNS": {"test_system": "XF 498 CNS"}, "DU-145 prostate": {"test_system": "DU-145 prostate"}, "RXF-631 renal": {"test_system": "RXF-631 renal"}, "DLD-1 colon": {"test_system": "DLD-1 colon"}, "P388/ADR leukemia": {"test_system": "P388/ADR leukemia"}, "MCF7 breast": {"test_system": "MCF7 breast"}, "P388 leukemia": {"test_system": "P388 leukemia"}, "HS 578T breast": {"test_system": "HS 578T breast"}, "MDA-N": {"test_system": "MDA-N"}, "SN12K1 renal": {"test_system": "SN12K1 renal"}}, "note": "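Each compound was tested at five concentrations against cells in 96-well plates for 48 hours. GI50 = concentration required for 50% inhibition of growth. TGI: concentration producing complete growth inhibition.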"}
{"smiles": "c1ccc2c(NCCCCCCCCNc3c4ccccc4nc4ccccc34)c3ccccc3nc2c1", "values": [{"measurement": "TGI", "setting": "T-47D breast", "value": 3.2, "unit": "µM"}, {"measurement": "TGI", "setting": "LXFL 529 NSCLC", "value": 1.81, "unit": "µM"}, {"measurement": "TGI", "setting": "XF 498 CNS", "value": 2.25, "unit": "µM"}, {"measurement": "TGI", "setting": "DU-145 prostate", "value": 1.94, "unit": "µM"}, {"measurement": "TGI", "setting": "RXF-631 renal", "value": 1.93, "unit": "µM"}, {"measurement": "TGI", "setting": "DLD-1 colon", "value": 2.4, "unit": "µM"}]}
{"smiles": "O=C(O)c1[nH]c(C(=O)O)c(CC(F)(F)C(F)(F)C(F)(F)F)c1CC(F)(F)C(F)(F)C(F)(F)F", "values": [{"measurement": "TGI", "setting": "LXFL 529 NSCLC", "value": "> 100", "unit": "µM"}, {"measurement": "TGI", "setting": "XF 498 CNS", "value": "> 100", "unit": "µM"}, {"measurement": "TGI", "setting": "RXF-631 renal", "value": "> 100", "unit": "µM"}, {"measurement": "TGI", "setting": "DLD-1 colon", "value": "> 100", "unit": "µM"}]}
{"smiles": "c1cncc(C2c3[nH]c4ccccc4c3CCN2CCN2CCCCC2)c1", "note": "(stereo not given)", "values": [{"measurement": "TGI", "setting": "LXFL 529 NSCLC", "value": "> 100", "unit": "µM"}, {"measurement": "TGI", "setting": "XF 498 CNS", "value": "> 100", "unit": "µM"}, {"measurement": "TGI", "setting": "RXF-631 renal", "value": "> 100", "unit": "µM"}, {"measurement": "TGI", "setting": "DLD-1 colon", "value": "> 100", "unit": "µM"}]}
{"smiles": "CCCN(CCCCC(NC(C)=O)C(=O)NCc1ccccc1)C(=O)NC", "note": "(stereo not given)", "values": [{"measurement": "TGI", "setting": "LXFL 529 NSCLC", "value": "> 100", "unit": "µM"}, {"measurement": "TGI", "setting": "XF 498 CNS", "value": "> 100", "unit": "µM"}, {"measurement": "TGI", "setting": "RXF-631 renal", "value": "> 100", "unit": "µM"}, {"measurement": "TGI", "setting": "DLD-1 colon", "value": "> 100", "unit": "µM"}]}
{"smiles": "CCCCS(=N)(=O)CC[C@H](N)C(=O)O", "note": "(stereo not given in full)", "values": [{"measurement": "TGI", "setting": "P388/ADR leukemia", "value": "> 5000", "unit": "µM"}, {"measurement": "GI50", "setting": "T-47D breast", "value": "> 10000", "unit": "µM"}, {"measurement": "TGI", "setting": "T-47D breast", "value": "> 10000", "unit": "µM"}, {"measurement": "GI50", "setting": "MCF7 breast", "value": "> 10000", "unit": "µM"}, {"measurement": "TGI", "setting": "MCF7 breast", "value": "> 10000", "unit": "µM"}, {"measurement": "TGI", "setting": "P388 leukemia", "value": 5000, "unit": "µM"}, {"measurement": "TGI", "setting": "XF 498 CNS", "value": 604, "unit": "µM"}, {"measurement": "GI50", "setting": "DU-145 prostate", "value": "> 10000", "unit": "µM"}, {"measurement": "TGI", "setting": "DU-145 prostate", "value": "> 10000", "unit": "µM"}, {"measurement": "GI50", "setting": "HS 578T breast", "value": "> 8500", "unit": "µM"}, {"measurement": "TGI", "setting": "HS 578T breast", "value": "> 10000", "unit": "µM"}, {"measurement": "GI50", "setting": "MDA-N", "value": "> 5000", "unit": "µM"}, {"measurement": "TGI", "setting": "MDA-N", "value": "> 10000", "unit": "µM"}, {"measurement": "TGI", "setting": "DLD-1 colon", "value": "> 5000", "unit": "µM"}, {"measurement": "TGI", "setting": "SN12K1 renal", "value": 3750, "unit": "µM"}]}
{"smiles": "CCc1cccc(C)c1NC(=O)CC1Sc2ccccc2NC1=O", "note": "(stereo not given)", "values": [{"measurement": "TGI", "setting": "LXFL 529 NSCLC", "value": "> 100", "unit": "µM"}, {"measurement": "TGI", "setting": "XF 498 CNS", "value": "> 100", "unit": "µM"}, {"measurement": "TGI", "setting": "RXF-631 renal", "value": "> 100", "unit": "µM"}, {"measurement": "TGI", "setting": "DLD-1 colon", "value": "> 100", "unit": "µM"}]}
{"smiles": "CC[C@@]1(OC(=O)CCC(=O)O)C(=O)OCc2c1cc1n(c2=O)Cc2cc3ccccc3nc2-1", "values": [{"measurement": "TGI", "setting": "T-47D breast", "value": 2.62, "unit": "µM"}, {"measurement": "TGI", "setting": "LXFL 529 NSCLC", "value": "> 45.4", "unit": "µM"}, {"measurement": "TGI", "setting": "XF 498 CNS", "value": 5.38, "unit": "µM"}, {"measurement": "TGI", "setting": "DU-145 prostate", "value": 1.51, "unit": "µM"}, {"measurement": "TGI", "setting": "HS 578T breast", "value": "> 100", "unit": "µM"}, {"measurement": "TGI", "setting": "MDA-N", "value": 5.51, "unit": "µM"}, {"measurement": "TGI", "setting": "RXF-631 renal", "value": 17.6, "unit": "µM"}, {"measurement": "TGI", "setting": "DLD-1 colon", "value": "> 100", "unit": "µM"}]}
{"smiles": "CN(C)CCNC(=O)c1cc([N+](=O)[O-])cc2ccc(-c3ccccc3)nc12", "values": [{"measurement": "TGI", "setting": "MCF7 breast", "value": "> 100", "unit": "µM"}, {"measurement": "TGI", "setting": "LXFL 529 NSCLC", "value": 58, "unit": "µM"}, {"measurement": "TGI", "setting": "XF 498 CNS", "value": 21.7, "unit": "µM"}, {"measurement": "TGI", "setting": "DLD-1 colon", "value": 39.5, "unit": "µM"}, {"measurement": "TGI", "setting": "SN12K1 renal", "value": 15.2, "unit": "µM"}]}
